Experimental data: US20230218559A1, “Compositions and Methods for Treating Aging and Age-Related Diseases and Symptoms” (The Regents of the University of California, priority 2014, published 2023)

Experiments:
[1] = test system: normal human diploid fibroblasts WI-38; test: Cell growth assay; type: cell-based; details: data not shown
Protocol: (§1) Cells were seeded in 12-well plates and after overnight incubation were treated with indicated concentrations of each compound. After harvesting, cells were stained by Acridine Orange (AO) and DAPI. Cell number and viability were measured based on AO and DAPI fluorescence measured by NC3000 (Chemometec) following the manufacturer's instructions.

Jurkat = test: Cell growth assay; type: cell-based, human; details: data not shown
Protocol: as §1

HEK 293 cells = test: Cell growth assay; type: cell-based, human; details: data not shown
Protocol: as §1

A549 = test: Cell growth assay; type: cell-based, human; details: data not shown
Protocol: as §1

AMPK = AMPK (T172) phosphorylation by Western blotting; type: cell-based, human; details: WI-38 cells; higher concentration of octyl α-KG
Protocol: Western blotting was performed with specific antibodies against P-AMPK T172 (Cell Signaling Technology, 2535S) and AMPK (Cell Signaling Technology, 2603S). […] Number of GFP::LGG-1 containing puncta was quantitated using ImageJ. Bars indicate the mean. […] HEK-293 (Panel d) or HeLa (Panel e) cells were lysed in M-PER buffer (Thermo Scientific, 78501) with the addition of protease inhibitors (Roche, 11836153001) and phosphatase inhibitors (50 mM NaF, 10 mM β-glycerophosphate, 5 mM sodium pyrophosphate, 2 mM Na3VO4). Protein concentration of the lysate was measured by BCA Protein Assay kit (Pierce, 23227). […] Pronase (Roche, 10165921001) digestions were performed for 20 minutes at room temperature, and stopped by adding SDS loading buffer and immediately heating at 95° C. for 5 minutes (for Panel d) or 70° C. for 10 minutes (for Panel e). Samples were subjected to SDS-PAGE on 4-12% Bis-Tris gradient gel (Invitrogen, NP0322BOX) and Western blotted with specific antibodies against ATP5B (Santa Cruz, sc58618), mTOR (Cell Signaling Technology, 2972), or GAPDH (Ambion, AM4300). ImageJ was used to quantify the mTOR/GAPDH and ATP5B/GAPDH ratios.

U87 cells [2] = test: Assay for ATP levels in U87 cells; type: cell-based, human; details: mitochondrial oxidative phosphorylation conditions, 2 hours
Protocol: For 2-HG experiments, U87 cells were seeded in 96-well plates at 2×10^4 cells per well and treated with indicated compound for 2 hours in triplicate. ATP levels were measured using the CellTiter-Glo luminescent ATP assay (Promega, G7572); luminescence was read using Analyst HT (Molecular Devices). […] Statistical analysis was performed using GraphPad Prism (unpaired t-test).

Complex V = target: T1, Complex V (Bos taurus, UniProt P00829); test: Complex V activity assay (MitoTox OXPHOS kit); type: biochemical, bovine
T1 construct: from bovine heart mitochondria; purchased Abcam ab109907; host or cells: bovine heart mitochondria
Protocol: Complex V activity was assayed using the MitoTox OXPHOS Complex V Activity Kit (Abcam, ab109907). Vehicle (H2O) or α-KG was mixed with the enzyme prior to the addition of phospholipids. […] Relative Complex V activity was compared to vehicle. Oligomycin (Sigma, O4876) was used as a positive control for the assay.

[3] = target: mitochondrial ATP synthase (Complex V) (Mus musculus, UniProt P56480); test: Mice fed octyl α-KG in chow; heart mitochondria OCR
Protocol: The mice were sacrificed, hearts harvested, and mitochondria isolated. The oxygen consumption rate (OCR) was measured using a Seahorse XF-24 Analyzer (Seahorse Bioscience).

[4] = test system: neonatal rat cardiomyocytes; test: Isoproterenol/phenylephrine-induced hypertrophy in isolated neonatal cardiomyocytes; type: cell-based; details: 200 μM
Protocol: Cardiomyocytes of neonatal rats were isolated by collagenase digestion and cultured overnight in DMEM containing 10% fetal calf serum (FCS), and then culture medium was changed to serum-free high glucose insulin-transferrin-sodium selenite (ITS). Hypertrophy of cardiomyocytes was induced by treating the cells with 1 mM isoproterenol (ISO) or phenylephrine (PE) for 48 hours.

mammalian cells = test: Oxygen consumption rate in cells (Seahorse XF-24); type: cell-based; details: treated cells, 1 hour
Protocol: OCR measurements were made using a Seahorse XF-24 analyzer (Seahorse Bioscience) (Wu, et al. Am J Physiol Cell Physiol 292, C125-136 (2007)). […] Oxygen consumption rates were measured 3 times under basal conditions and normalized to protein concentration per well. Statistical analysis was performed using GraphPad Prism.

U87 cells [5] = test: Cell growth and viability assays in U87 cells; type: cell-based, human
Protocol: IDH1(R132H) mutant or IDH1(WT) expressing U87 cells were as reported (Li, et al. Neuro Oncol 15, 57-68). […] All the cells were cultured at 37° C. and 5% CO2. Cells were transfected with indicated siRNA using Thermo Scientific DharmaFECT Transfection Reagent 1 by following the manufacturer's instructions.
as §1

mTOR [6] = test: Assay for mammalian TOR (mTOR) pathway activity; type: cell-based, human; details: U87 cells
Description: Specific antibodies used: P-S6K T389 (Cell Signaling Technology, 9234), S6K (Cell Signaling Technology, 9202S), P-4E-BP1 S65 (Cell Signaling Technology, 9451S), 4E-BP1 (Cell Signaling Technology, 9452S), P-AKT S473 (Cell Signaling Technology, 4060S), AKT (Cell Signaling Technology, 4691S), P-ULK1 S757 (Cell Signaling Technology, 6888), ULK1 (Cell Signaling Technology, 4773S), and GAPDH (Santa Cruz Biotechnology, 25778).

WI-38 cells = test: Assay for ATP levels in normal human fibroblasts; type: cell-based; details: 2 hours
Protocol: Normal human diploid fibroblast WI-38 (ATCC, CCL-75) cells were seeded in 96-well plates at 2×10^4 cells per well. […] ATP levels were measured using the CellTiter-Glo luminescent ATP assay (Promega, G7572); luminescence was read using Analyst HT (Molecular Devices). In parallel, identically treated cells were lysed in M-PER (Thermo Scientific, 78501) to obtain protein concentration by BCA Protein Assay kit (Pierce, 23223). ATP levels were normalized to protein content. Statistical analysis was performed using GraphPad Prism (unpaired t-test).

ATP synthase = target: T2, ATP synthase (Mus musculus, UniProt P56480); test: ATP synthase enzyme inhibition kinetics; type: biochemical
T2 construct: Mitochondria were isolated from mouse liver as described above; from tissue; host or cells: isolated mouse liver mitochondria
Protocol: ATP synthesis enzyme inhibition kinetic analysis was performed using isolated mitochondria. Mitochondria were isolated from mouse liver as described above. The final mitochondrial pellet was resuspended in MAS buffer supplemented with 5 mM sodium ascorbate (Sigma, A7631) and 5 mM TMPD (Sigma, T7394).
ATP synthesis was monitored by the increase in luminescence over time by a luminometer (Analyst HT, Molecular Devices). ATP synthase-independent ATP formation, derived from the oligomycin-insensitive luminescence, was subtracted as background. The initial velocity of ATP synthesis was calculated from the slope of the first 3 minutes of the reaction, before the velocity begins to decrease. Enzyme inhibition kinetics was analyzed by nonlinear regression least squares fit using GraphPad Prism.

DBA2/J female mice = test: Isoproterenol-induced hypertrophy and heart failure in mice; type: in vivo, mouse; details: ISO plus octyl α-KG, 3 weeks, echocardiography; ISO+octanol 49.2%±1.9
Protocol: Hypertrophy and heart failure were induced by chronic infusion of isoproterenol for 3 weeks at a dose of 30 μg per gram bodyweight per day using osmotic mini-pumps (Alzet, model 1004). DBA2/J female mice at 8 weeks old were used for this study. […] ISO-induced cardiac hypertrophy and cardiomyopathy were determined at the end of experiment by assessing heart size and heart to body weight ratio.
More importantly, cardiac output was assessed and the cardiac ejection fractions were determined by echocardiography. The cardiac EF for the basal levels before the treatment is 55.1%±2.6 (n=14).

lactate dehydrogenase = test: Coupling-enzyme control of SMP ATPase assay; type: biochemical; details: up to 10 mM, external ADP added
Protocol: (§2) The SMP ATPase activity was assayed using the Complex V Activity Buffer as above. The production of ADP is coupled to the oxidation of NADH to NAD^+ through pyruvate kinase and lactate dehydrogenase. […] The absorbance decrease of NADH at 340 nm correlates to ATPase activity.

pyruvate kinase = test: Coupling-enzyme control of SMP ATPase assay; type: biochemical; details: up to 10 mM, external ADP added
Protocol: as §2

C. elegans [7] = test: Assay for ATP levels in C. elegans; type: in vivo, Caenorhabditis elegans; details: 8 mM; day 2, P=0.969; day 8, P=0.012
Protocol: Assay for ATP levels in C. elegans. […] ATP levels were normalized to number of worms. Statistical analysis was performed using Microsoft Excel (t-test, two-tailed, two-sample unequal variance).

mTOR [8] = target: T3, mTOR (Homo sapiens, UniProt P42345); test: DARTS for TOR in HEK-293 / HeLa lysates; type: binding; details: HEK-293 or HeLa lysates
T3 construct: HEK-293 (Panel d) or HeLa (Panel e) cells were lysed in M-PER buffer; endogenous in cells; host or cells: HEK-293; HeLa
Description: Number of GFP::LGG-1 containing puncta was quantitated using ImageJ. Bars indicate the mean. […] ImageJ was used to quantify the mTOR/GAPDH and ATP5B/GAPDH ratios.

ATP-2 = target: T4, ATP-2 (Caenorhabditis elegans, UniProt P46561); test: DARTS using C. elegans lysate; type: binding; details: worm lysate
T4 construct: from tissue; host or cells: lysate of whole wild-type C. elegans
T4 sequence (P46561 whole entry): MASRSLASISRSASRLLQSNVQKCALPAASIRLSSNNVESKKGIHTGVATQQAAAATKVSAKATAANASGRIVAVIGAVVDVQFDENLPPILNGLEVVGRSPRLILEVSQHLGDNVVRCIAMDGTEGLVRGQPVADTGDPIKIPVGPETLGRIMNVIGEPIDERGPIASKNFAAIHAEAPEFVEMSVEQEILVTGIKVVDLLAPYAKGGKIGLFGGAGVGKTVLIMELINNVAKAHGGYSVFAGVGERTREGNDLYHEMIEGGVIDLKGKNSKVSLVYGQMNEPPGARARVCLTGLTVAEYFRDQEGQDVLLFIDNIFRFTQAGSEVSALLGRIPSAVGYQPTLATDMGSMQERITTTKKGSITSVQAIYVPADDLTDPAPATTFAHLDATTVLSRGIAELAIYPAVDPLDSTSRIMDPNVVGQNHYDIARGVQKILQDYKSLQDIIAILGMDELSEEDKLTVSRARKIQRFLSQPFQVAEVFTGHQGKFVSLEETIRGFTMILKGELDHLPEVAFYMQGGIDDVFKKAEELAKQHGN
Protocol: For DARTS using C. elegans (FIG. 6, Panel a), wild-type animals of various ages were grown on NGM/OP50 plates, washed 4 times with M9 buffer, and immediately placed in the −80° C. freezer. […] All steps were performed on ice or at 4° C. to help prevent premature protein degradation. TNC buffer (50 mM Tris-HCl pH 8.0, 50 mM NaCl, 10 mM CaCl2) was added to the worm lysates.

Complex IV = test system: T5, Complex IV; test: Complex IV activity assay (MitoTox OXPHOS kit); type: biochemical, bovine; details: relative to vehicle (H2O)
T5 construct: from bovine heart mitochondria; purchased Abcam ab109906; host or cells: bovine heart mitochondria
Protocol: Complex IV activity was assayed using the MitoTox OXPHOS Complex IV Activity Kit (Abcam, ab109906).

ATP5B = target: T6, ATP5B (Homo sapiens, UniProt P06576); test: DARTS (drug affinity responsive target stability) with Western blotting; type: binding; details: human cell lysates, Pronase digestion
T6 construct: HeLa cells were lysed in M-PER buffer; endogenous in cells; host or cells: HeLa (alpha-KG); U87 (2-HG)
T6 sequence (P06576 48-529): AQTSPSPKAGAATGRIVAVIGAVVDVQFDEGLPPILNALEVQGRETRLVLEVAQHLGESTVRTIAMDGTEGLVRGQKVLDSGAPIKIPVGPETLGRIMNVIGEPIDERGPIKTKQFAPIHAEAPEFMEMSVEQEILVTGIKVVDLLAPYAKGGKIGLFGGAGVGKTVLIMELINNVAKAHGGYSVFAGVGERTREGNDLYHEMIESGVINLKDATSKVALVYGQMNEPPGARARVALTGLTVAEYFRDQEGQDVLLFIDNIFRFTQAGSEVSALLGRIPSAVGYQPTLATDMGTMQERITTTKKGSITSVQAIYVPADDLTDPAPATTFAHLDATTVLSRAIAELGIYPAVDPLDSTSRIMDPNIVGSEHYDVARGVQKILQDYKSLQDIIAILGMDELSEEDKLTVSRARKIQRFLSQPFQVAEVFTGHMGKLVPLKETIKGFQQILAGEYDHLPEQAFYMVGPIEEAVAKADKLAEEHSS
Protocol: Target identification using DARTS was conducted in accordance with methods know in the art. […] The resulting digests were separated by SDS-PAGE and visualized using SYPRO Ruby Protein Gel Stain (Invitrogen, S12000).
GAPDH (Ambion, AM4300) was used as a negative control.
For 2-HG experiments, DARTS was performed as described above.

C. elegans [9] = test: Oxygen consumption rate in living C. elegans; type: in vivo, Caenorhabditis elegans; details: worms, 8 mM, day 2 of adulthood
Protocol: OCR was assessed on day 2 of adulthood. […] Oxygen consumption rates were measured 7 times under basal conditions and normalized to the number of worms counted per well. The experiment was repeated twice. Statistical analysis was performed using Microsoft Excel (t-test, two-tailed, two-sample unequal variance).

O=C(O)CCC(O)C(=O)O (stereo not drawn) [2-HG, 2-hydroxypentanedioate]
cell growth [1]: Growth inhibition | cell growth (Jurkat): Growth inhibition | cell growth (HEK 293 cells): Growth inhibition | cell growth (A549): Growth inhibition

CCCCCCCCOC(=O)C(=O)CCC(=O)O [octyl α-KG, octyl α-ketoglutarate]
P-AMPK (T172) (AMPK): increased | ATP content (U87 cells [2]): decreased | reversibility of ATP synthase inhibition (Complex V; α-KG released from octyl α-KG, not shown): reversible | state 3 respiration of heart mitochondria ([3]; mice fed 1.5 mg/g body weight in chow for one week, versus octanol control mice): lower | physiological or behavioral abnormality ([3]; mice, 1.5 mg/g body weight in chow, after 5 days feeding): no abnormality | ISO- and PE-induced overexpression of ANF and BNP [4]: suppressed | ISO-induced hypertrophy ([4]; 1 mM isoproterenol, 48 hours): completely abolished | oxygen consumption rates (mammalian cells): Decreased | viability upon glucose starvation (U87 cells [5]; 400 μM and 800 μM): decreased | growth rate (U87 cells [5]; glucose medium, to a lesser extent, not shown): reduced | growth rate (U87 cells [5]; glucose-free medium, 400 μM and 800 μM): decreased growth rate | phosphorylation of S6K (T389) (mTOR [6]): decreased | phosphorylation of mTOR substrates (mTOR [6]): decreased | ATP levels (WI-38 cells): reduced | apparent Vmax of ATP synthase (ATP synthase; 200 μM octyl α-KG, octanol vehicle 53.9): 26.7 | mode of ATP synthase inhibition (ATP synthase; α-KG released from octyl α-KG): uncompetitive inhibition | cardiac ejection fraction (DBA2/J female mice): 53.8%±2.3

O=C(O)CCC(=O)C(=O)O [α-KG, α-ketoglutarate]
activity of lactate dehydrogenase (lactate dehydrogenase): did not affect | activity of pyruvate kinase (pyruvate kinase): did not affect | activity of Complex V (Complex V; bovine heart mitochondria): inhibits | ATP levels (C. elegans [7]): reduced | binding to TOR by DARTS (mTOR [8]): does not bind | ATP-2 protein protection from Pronase digestion (ATP-2): protection | Complex IV activity (Complex IV): does not affect | binding to ATP5B by DARTS (ATP5B): binding specifically | oxygen consumption rates (C. elegans [9]): Decreased
